For one assay, the target named is EZH2 enzyme complex (Homo sapiens (Human), UniProt Q15910). Briefly: Test on EZH2 inhibitory activity (TR-FRET). In kind it is biochemical. The settings on record: EZH2 enzyme complex 25 ng/uL, histone H3 peptide 4 uM, SAM 2 uM, 300 min; read-out: IC50 of EZH2 inhibition.
In the next assay the test system is Pfeiffer. Briefly: Methylated lysine of histone-H3 (H3K27Me3) detection by ELISA, Pfeiffer cells. In kind it is cell-based, human. The note with it: 7 days treatment, H3K27Me3 normalized to total histone-3, read-out: IC50 of cell methylation, Pfeiffer. As for the experimental part: (§1) The operations for adherent cells and suspension cells cultured in 96-well plates were slightly different after they had been treated with compound (4-fold dilution 20 uM-0.009 nM, 3 duplicate wells) for 7 days, and the operations are summarized as follows: For adherent cells, after discarding the medium, 75 uL of 1-fold hypotonic lysis buffer (10 mM Tris-HCl, pH 7.5, containing halt protease inhibitor and PMSF with a final concentration of 1 mM) was added; the plate was frozen at −80° C. for at least 1 h or overnight; once the plate was taken away from the −80° C. environment, 120 uL (to a final volume of about 195 uL) of 1-fold hypotonic lysis buffer (containing protease inhibitor) was added, and the plate was thawed at room temperature and shaken for 2 min for mixing; and 8 uL (to a final volume of about 203 uL) of 2.5 M NaCl was added to each well to a final NaCl concentration of 100 mM and then the plate was shaken for an additional 2 min for mixing.
(§2) For suspension cells (final volume of medium was 100 uL/well), 25 uL of 5-fold hypotonic lysis buffer (50 mM Tris-HCl, pH 7.5, containing halt protease inhibitor and PMSF with a final concentration of 1 mM) was added, and the plate was frozen at −80° C. for at least 1 h or overnight. Once the plate was taken away from the −80° C. environment, 20 uL of 0.625 M NaCl was added to each well to a final NaCl concentration of about 100 mM, and the mixture was mixed well.
(§3) 75 uL or 100 uL of sample (with duplicate wells provided) was added to two 96-well ELISA plates (ThermoFisher Scientific; Immulon 4HBX 3885) and the plates were coated with total protein lysate and incubated overnight at 4° C. 50 uL of lysate was retained for protein quantitation if necessary. The sealing of the plates must be ensured. The plates were washed twice with 300 uL of 1×PBST (PBS containing 0.05% Tween 20) per well. Each well was blocked with 300 uL of dilution (PBS+2% BSA+0.05% Tween 20), incubated for 2 h at room temperature, and washed twice with 1×PBST. Primary antibodies were diluted with a dilution solution containing 1% BSA+0.05% Tween 20. 75-100 uL of anti-H3K27Me3 antibody (CST; 9733; 50% glycerol stock, 1:1,000) or anti-total histone-3 antibody (Abcam; ab1791; 50% glycerol stock, 1:10,000) was added to each well. The plates were incubated for 90 min at room temperature or incubated overnight at 4° C. The plates were washed three times with 1×PBST. 75-100 uL of anti-Rb-IgG-HRP secondary antibody (Cell Signaling Technology; 7074) was added per well, 1:2000 diluted secondary antibody for anti-H3K 27Me3 plate and 1:6000 diluted secondary antibody for anti-histone total histone-3 plate. The plates were incubated at room temperature for 90 min. The plate assayed with anti-histone-3 antibody was used to normalize the data for the corresponding plate assayed with anti-H3K 27me3. The plates must be washed at least three times with 1×PBST after primary or secondary antibody incubation. The plates were assayed by adding 75-100 uL of 3,3′,5,5′-tetramethylbenzidine substrate (CST or ThermoFisher Scientific; TMBS) per well and incubated away from light for 30 min at 37° C. The reaction was terminated by adding 100 uL of 0.5 M H2SO4 per well. The absorbance was read at 450 nm. Curve fitting was performed using Graph Pad program.
For orientation: An ELISA detects its analyte on a solid surface through an enzyme-linked reagent.

The test system of the next assay is WSU-DLCL2. Nature of the assay: Methylated lysine of histone-H3 (H3K27Me3) detection by ELISA, WSU-DLCL2 cells. In kind it is cell-based. The settings on record: Homo sapiens, WSUDLCL2, 168 h; WSU-DLCL2, 7 days treatment, H3K27Me3 normalized to total histone-3; read-out: IC50 of cell methylation, WSU-DLCL2. As for the experimental part: as §1, §2, §3

pIC50: −log10 of the molar value. Like-named read-outs stand apart in the source and are kept apart here.

Chain of EZH2 enzyme complex (Q15910 whole entry): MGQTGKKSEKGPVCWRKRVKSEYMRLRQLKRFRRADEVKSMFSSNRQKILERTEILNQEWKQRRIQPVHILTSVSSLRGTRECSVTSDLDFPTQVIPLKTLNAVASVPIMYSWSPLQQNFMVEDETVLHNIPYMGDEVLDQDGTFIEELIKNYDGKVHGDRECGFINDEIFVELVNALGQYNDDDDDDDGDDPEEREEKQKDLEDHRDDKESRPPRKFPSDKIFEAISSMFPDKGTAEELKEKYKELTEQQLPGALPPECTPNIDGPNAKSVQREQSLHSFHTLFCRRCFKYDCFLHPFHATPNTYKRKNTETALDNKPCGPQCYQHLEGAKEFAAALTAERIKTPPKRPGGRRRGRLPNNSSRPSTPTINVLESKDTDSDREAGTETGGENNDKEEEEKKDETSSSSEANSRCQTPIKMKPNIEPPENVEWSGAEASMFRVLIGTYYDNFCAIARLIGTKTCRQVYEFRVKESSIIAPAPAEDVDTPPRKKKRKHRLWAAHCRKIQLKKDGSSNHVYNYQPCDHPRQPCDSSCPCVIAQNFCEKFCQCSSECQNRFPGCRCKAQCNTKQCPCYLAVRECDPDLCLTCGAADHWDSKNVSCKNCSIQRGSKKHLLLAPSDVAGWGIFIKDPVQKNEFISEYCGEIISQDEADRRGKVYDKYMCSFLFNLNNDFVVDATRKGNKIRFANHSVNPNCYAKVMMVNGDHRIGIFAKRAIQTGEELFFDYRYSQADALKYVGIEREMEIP
Chain of EZH2 enzyme complex (O75530 whole entry partner): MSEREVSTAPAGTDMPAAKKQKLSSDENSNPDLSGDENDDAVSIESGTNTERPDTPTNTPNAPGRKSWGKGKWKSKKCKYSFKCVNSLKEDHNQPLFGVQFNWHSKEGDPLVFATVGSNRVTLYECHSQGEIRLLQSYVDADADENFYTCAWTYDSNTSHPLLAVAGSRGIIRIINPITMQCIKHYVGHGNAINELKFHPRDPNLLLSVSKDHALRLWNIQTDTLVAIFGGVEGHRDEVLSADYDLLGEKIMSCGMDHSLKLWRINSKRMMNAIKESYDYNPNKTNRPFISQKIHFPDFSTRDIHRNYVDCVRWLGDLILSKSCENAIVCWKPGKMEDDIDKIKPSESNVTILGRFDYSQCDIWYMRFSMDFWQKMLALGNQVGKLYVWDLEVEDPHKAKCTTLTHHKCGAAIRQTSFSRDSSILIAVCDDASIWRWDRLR
Chain of EZH2 enzyme complex (Q15022 whole entry partner): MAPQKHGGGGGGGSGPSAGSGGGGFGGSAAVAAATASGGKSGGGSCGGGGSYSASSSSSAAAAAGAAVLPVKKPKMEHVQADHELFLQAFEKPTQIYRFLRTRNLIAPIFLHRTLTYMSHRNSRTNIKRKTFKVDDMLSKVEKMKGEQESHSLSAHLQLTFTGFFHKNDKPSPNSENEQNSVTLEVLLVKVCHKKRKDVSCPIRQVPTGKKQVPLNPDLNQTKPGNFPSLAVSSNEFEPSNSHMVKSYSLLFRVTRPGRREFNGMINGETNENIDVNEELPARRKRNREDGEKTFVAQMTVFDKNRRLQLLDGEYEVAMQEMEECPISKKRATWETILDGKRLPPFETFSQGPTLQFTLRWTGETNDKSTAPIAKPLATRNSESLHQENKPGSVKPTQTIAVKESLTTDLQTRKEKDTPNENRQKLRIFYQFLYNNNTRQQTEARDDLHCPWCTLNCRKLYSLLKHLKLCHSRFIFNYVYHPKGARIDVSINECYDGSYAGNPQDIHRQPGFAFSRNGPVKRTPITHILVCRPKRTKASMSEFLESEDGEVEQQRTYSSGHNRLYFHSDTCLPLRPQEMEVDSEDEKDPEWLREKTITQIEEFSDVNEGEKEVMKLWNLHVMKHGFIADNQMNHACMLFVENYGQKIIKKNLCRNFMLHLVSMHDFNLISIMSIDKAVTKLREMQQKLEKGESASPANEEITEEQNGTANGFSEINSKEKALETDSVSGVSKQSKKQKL
Description for EZH2 enzyme complex: • EZH2 enzyme complex: 25 ng/uL • Histone H3 peptide substrate: 4 uM • SAM: 2 uM • Reaction time: 300 min Procedures • 1. Each compound disclosed herein was diluted with 1×HMT buffer and transferred to a 384-well assay plate at 3 uL per well; • 2. The EZH2 enzyme solution was prepared with 1×HMT buffer and transferred to the 384-well assay plate at 2 uL per well; • 3. The above assay plate was incubated for 30 min; • 4. A mixture solution of SAM and histone H3 peptide substrate at 2-fold concentration was prepared with 4×HMT buffer; • 5. 5 uL of the mixture solution of SAM and substrate was added to each well of the assay plate to react at room temperature, and the assay plate was sealed with plastic; • 6. After incubation for 5 h, 10 uL of TR-FRET detection buffer containing Tb-labeled antibody and dye-labeled receptor was added to each well of the assay plate; • 7. After incubation for 1 h at room temperature, the assay plate was detected; • 8.

For orientation: pIC50 means the negative decadic logarithm of the IC50, by convention in mol/L. As for `CCN(c1cc(O[C@H]2C[C@H](CN3C[C@@H](C)O[C@@H](C)C3)C2)cc(C(=O)NCc2c(C)cc(C)[nH]c2=O)c1Cl)C1CCOCC1` [Example 30, 2-chloro-N-((4,6-dimethyl-2-oxo-1,2-dihydropyridin-3-yl)methyl)-5-(trans-3-((cis-2,6-dimethylmorpholinyl)methyl)cyclobutoxy)-3-(ethyl(tetrahydro-2H-pyran-4-yl)amino)benzamide], the pIC50 at EZH2 enzyme complex is 7.00 to 8.00; in the assay with Pfeiffer it was over 7.30; with WSU-DLCL2, 6.30 to 7.30.

For `CCN(c1cc(O[C@H]2C[C@H](N3C[C@@H](C)O[C@@H](C)C3)C2)cc(C(=O)NCc2c(C)cc(C)[nH]c2=O)c1C)C1CCOC1` (stereo partly drawn) [Example 46, N-((4,6-dimethyl-2-oxo-1,2-dihydropyridin-3-yl)methyl)-5-(trans-3-(cis-2,6-dimethylmorpholinyl)cyclobutoxy)-3-(ethyl(tetrahydrofuran-3-yl)amino)-2-methylbenzamide], the pIC50 is over 8.00 at EZH2 enzyme complex; 6.00 to 6.30 with Pfeiffer (Homo sapiens, 168 h); 6.30 to 7.30 in the assay with WSU-DLCL2.

`CCN(c1cc(C2CCC2)cc(C(=O)NCc2c(C)cc(C)[nH]c2=O)c1C)C1CCOCC1` [Example 15, 5-cyclobutyl-N-((4,6-dimethyl-2-oxo-1,2-dihydropyridin-3-yl)methyl)-3-(ethyl(tetrahydro-2H-pyran-4-yl)amino)-2-methylbenzamide]: the pIC50 at EZH2 enzyme complex is 7.00 to 8.00; in the assay with Pfeiffer (Homo sapiens, 168 h), over 7.30; with WSU-DLCL2 it was 6.30 to 7.30.

As to `CCN(c1cc(O[C@H]2C[C@H](N3C[C@@H](C)O[C@@H](C)C3)C2)cc(C(=O)NCc2c(C)cc(C)[nH]c2=O)c1C)[C@@H]1C[C@@H](C)O[C@@H](C)C1` [Example 39, N-((4,6-dimethyl-2-oxo-1,2-dihydropyridin-3-yl)methyl)-5-(trans-3-(cis-2,6-dimethylmorpholinyl)cyclobutoxy)-3-((trans-2,6-dimethyltetrahydro-2H-pyran-4-yl)(ethyl)amino)-2-methylbenzamide], the pIC50 is 6.00 to 7.00 at EZH2 enzyme complex; 6.00 to 6.30 with Pfeiffer (Homo sapiens, 168 h); under 6.00 with WSU-DLCL2.

As to `CCN(c1cc(OC2CC(CN3CCOCC3)C2)cc(C(=O)NCc2c(C)cc(C)[nH]c2=O)c1C)C1CCOCC1` (stereo not drawn) [Example 16, N-((4,6-dimethyl-2-oxo-1,2-dihydropyridin-3-yl)methyl)-3-(ethyl(tetrahydro-2H-pyran-4-yl)amino)-2-methyl-5-(3-(morpholinylmethyl)cyclobutoxy)benzamide], the pIC50 is 7.00 to 8.00 at EZH2 enzyme complex; over 7.30 in the assay with Pfeiffer (Homo sapiens, 168 h); 6.30 to 7.30 with WSU-DLCL2.

In the case of `CCN(c1cc(O[C@H]2C[C@H](N3CCOCC3)C2)cc(C(=O)N(C)Cc2c(C)cc(C)[nH]c2=O)c1C)C1CCOCC1` [Example 51, N-((4,6-dimethyl-2-oxo-1,2-dihydropyridin-3-yl)methyl)-3-(ethyl(tetrahydro-2H-pyran-4-yl)amino)-N,2-dimethyl-5-(trans-3-morpholinylcyclobutoxy)benzamide], the pIC50 was 6.00 to 7.00 at EZH2 enzyme complex; under 6.00 in the assay with Pfeiffer (Homo sapiens, 168 h); under 6.00 in the assay on WSU-DLCL2.

`CCN(c1cc(C2CC2CO)cc(C(=O)NCc2c(C)cc(C)[nH]c2=O)c1C)C1CCOCC1` (stereo not drawn) [Example 71, N-((4,6-dimethyl-2-oxo-1,2-dihydropyridin-3-yl)methyl)-3-(ethyl(tetrahydro-2H-pyran-4-yl)amino)-5-(2-(hydroxymethyl)cyclopropyl)-2-methylbenzamide]: the pIC50 at EZH2 enzyme complex is 7.00 to 8.00; in the assay with Pfeiffer (Homo sapiens, 168 h), over 7.30; in the assay on WSU-DLCL2 it was 6.30 to 7.30.

On to `CCN(c1cc(O[C@H]2C[C@H](N3CCNCC3)C2)cc(C(=O)NCc2c(C)cc(C)[nH]c2=O)c1C)C1CCOCC1` [Example 18, N-((4,6-dimethyl-2-oxo-1,2-dihydropyridin-3-yl)methyl)-3-(ethyl(tetrahydro-2H-pyran-4-yl)amino)-2-methyl-5-(trans-3-(piperazin-1-yl)cyclobutoxy)benzamide], for which the pIC50 at EZH2 enzyme complex was 7.00 to 8.00; in the assay with Pfeiffer (Homo sapiens, 168 h), over 7.30; in the assay with WSU-DLCL2, 6.30 to 7.30.

In the case of `CCN(c1cc(C2CC2CN2CCC(F)(F)CC2)cc(C(=O)NCc2c(C)cc(C)[nH]c2=O)c1C)C1CCOCC1` (stereo not drawn) [Example 78, 5-(2-((4,4-difluoropiperidin-1-yl)methyl)cyclopropyl)-N-((4,6-dimethyl-2-oxo-1,2-dihydropyridin-3-yl)methyl)-3-(ethyl(tetrahydro-2H-pyran-4-yl)amino)-2-methylbenzamide], the pIC50 on EZH2 enzyme complex is 7.00 to 8.00; with Pfeiffer (Homo sapiens, 168 h), over 7.30; with WSU-DLCL2, 6.30 to 7.30.

Regarding `CCN(c1cc(C2CC2CN2CCNCC2)cc(C(=O)NCc2c(C)cc(C)[nH]c2=O)c1C)C1CCOCC1` (stereo not drawn) [Example 73, N-((4,6-dimethyl-2-oxo-1,2-dihydropyridin-3-yl)methyl)-3-(ethyl(tetrahydro-2H-pyran-4-yl)amino)-2-methyl-5-(2-(piperazin-1-ylmethyl)cyclopropyl)benzamide], the pIC50 on EZH2 enzyme complex was 7.00 to 8.00; in the assay with Pfeiffer (Homo sapiens, 168 h), 6.30 to 7.30; in the assay on WSU-DLCL2, 6.30 to 7.30.

Turning to `CCN(c1cc(O[C@H]2C[C@@H](N3C[C@@H](C)O[C@@H](C)C3)C2)cc(C(=O)NCc2c(C)cc(C)[nH]c2=O)c1C)[C@@H]1C[C@@H](C)O[C@@H](C)C1` [Example 38, N-((4,6-dimethyl-2-oxo-1,2-dihydropyridin-3-yl)methyl)-5-((1S,3S)-3-((2S,6R)-2,6-dimethylmorpholinyl)cyclobutoxy)-3-(((2R,4s,6S)-2,6-dimethyltetrahydro-2H-pyran-4-yl)(ethyl)amino)-2-methylbenzamide], the pIC50 at EZH2 enzyme complex was 6.00 to 7.00; with Pfeiffer (Homo sapiens, 168 h) it was 6.00 to 6.30; with WSU-DLCL2 it was under 6.00.

For the molecule `CCN(c1cc(O[C@H]2C[C@H](CN3CCOCC3)C2)cc(C(=O)NCc2c(C)cc(C)[nH]c2=O)c1Cl)C1CCOCC1` [Example 29, 2-chloro-N-((4,6-dimethyl-2-oxo-1,2-dihydropyridin-3-yl)methyl)-3-(ethyl(tetrahydro-2H-pyran-4-yl)amino)-5-(trans-3-(morpholinylmethyl)cyclobutoxy)benzamide], the negative logarithm of the IC50 (pIC50) on EZH2 enzyme complex was 7.00 to 8.00; in the assay with Pfeiffer (Homo sapiens, 168 h) it was over 7.30; with WSU-DLCL2, 6.30 to 7.30.

For the molecule `CCN(c1cc(O[C@H]2C[C@H](N3CCN(C)CC3)C2)cc(C(=O)NCc2c(C)cc(C)[nH]c2=O)c1C)C1CCOCC1` [Example 20, N-((4,6-dimethyl-2-oxo-1,2-dihydropyridin-3-yl)methyl)-3-(ethyl(tetrahydro-2H-pyran-4-yl)amino)-2-methyl-5-(trans-3-(4-methylpiperazin-1-yl)cyclobutoxy)benzamide], the pIC50 at EZH2 enzyme complex was 7.00 to 8.00; with Pfeiffer (Homo sapiens, 168 h), over 7.30; in the assay on WSU-DLCL2, 6.30 to 7.30.

Take `CCN(c1cc(O[C@H]2C[C@H](CN3CCOCC3)C2)cc(C(=O)NCc2c(C)cc(C)[nH]c2=O)c1C)C1CCOCC1` [Example 7, N-((4,6-dimethyl-2-oxo-1,2-dihydropyridin-3-yl)methyl)-3-(ethyl(tetrahydro-2H-pyran-4-yl)amino)-2-methyl-5-(trans-3-(morpholinylmethyl)cyclobutoxy)benzamide]: the pIC50 was 7.00 to 8.00 at EZH2 enzyme complex; over 7.30 with Pfeiffer (Homo sapiens, 168 h); 6.30 to 7.30 with WSU-DLCL2.

Turning to `CCN(c1cc(O[C@H]2C[C@H](CN3CCCCC3)C2)cc(C(=O)NCc2c(C)cc(C)[nH]c2=O)c1C)C1CCOCC1` [Example 36, N-((4,6-dimethyl-2-oxo-1,2-dihydropyridin-3-yl)methyl)-3-(ethyl(tetrahydro-2H-pyran-4-yl)amino)-2-methyl-5-(trans-3-(piperidin-1-ylmethyl)cyclobutoxy)benzamide], the negative logarithm of the IC50 (pIC50) at EZH2 enzyme complex is 7.00 to 8.00; in the assay on Pfeiffer (Homo sapiens, 168 h) it was over 7.30; with WSU-DLCL2, 6.30 to 7.30.
